According to patent US20250163056A1, “NONMUSCLE MYOSIN II INHIBITORS” (The University of Florida Research Foundation, Inc., priority 2018, published 2025):
Like-named read-outs stand apart in the source and are kept apart here.

Legend:
[1] = system: rodent behaviors; settings: systemically administered
[2] = biological target: Bovine cardiac myosin (Bos taurus (Bovine), UniProt Q9BE39); assay: Cardiac muscle myosin II actin-activated ATPase assay (NADH-coupled); type: biochemical; design: key to Ratio CMMII:NMII Ki/EC50: NMII-sel: no Ki value for cardiac myosin II could be determined; the compounds had no detectable inhibitory properties versus the cardiac myosin II; settings: for CMMII/NMII Ratio: cardiac Ki relative to NMII EC50; for Ratio CMMII:NMII Ki/EC50: cardiac myosin II Ki over nonmuscle myosin II EC50
Summary of the method: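 NADH-coupled (PK/LDH) assay at 25° C: 300 nM bovine cardiac myosin, 10 μM rabbit F-actin, 1 mM ATP, 1 mM PEP, 220 μM NADH, MOPS pH 7.0, 0.5% DMSO. NADH fluorescence was followed for 30 min; Ki values came from 16-point triplicate data (top 50 uM) fitted to a quadratic one-to-one binding model.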

[3] = biological target: nonmuscle myosin II (Chlorocebus sabaeus, UniProt A0A0D9RDH4); assay: Cytokinesis cell-based assay of nonmuscle myosin II function in COS7 cells; settings: read-out: NMII EC50
Protocol: Cytokinesis is a cell-based assay to assess nonmuscle myosin II function, performed using COS7 cells. The assay is run in a 96 well plate, with 2,000 cells plated per well. Total incubation time is 48 hours, with 24 hours of treatment with the compound of interest. Prior to treatment with small molecules, a two-fold dilution series of compound solutions is prepared in DMSO. Starting concentrations are determined based on compound solubility. Compound solutions are further diluted in DMEM medium to a final DMSO concentration of 2% (50-fold dilution). Subsequently, 100 μl diluted solution is transferred to each well of the plate containing 100 μl of cell culture (achieving 1% final DMSO concentration). All measurements are carried out in triplicate. Cells are stained by fluorescein diacetate (6 μM), a cell viability dye, the cell-permeant Hoescht33342 (10 μM) and the membrane-impermeant propidium iodide (4 μM) to label all nuclei and those belonging to dead cells, respectively. Dye solutions are replaced by fresh media after 10 minutes of incubation. An INCell Analyzer 6000 is used for imaging. […] Cytotoxicity is also assayed and quantified as the ratio of dead nuclei to total nuclei. […] Half maximal effective concentration (EC50) is determined by fitting the 6-point dose-response data to the Hill equation.

[4] = system: hiPS cardiomyocytes (Cor.4U CMs); assay: Cardiac safety assay 1: beating parameters of cardiomyocytes (xCELLigence RTCA Cardio); type: cell-based, human; settings: hiPS-derived cardiomyocytes
Protocol: The spontaneous contractions of cardiomyocytes (CMs) is measured label-free in real time using the ACEA xCELLigence RTCA Cardio instrument. All measurements are performed at 37° C. in a cell culture incubator, allowing for spontaneous beating of CMs at physiological conditions. Cor.4U CMs are seeded at 3×10^4 cells/well in 180 μl/well maintenance medium. Prior to seeding, a background impedance measurement (plate plus medium) is performed. The contraction of CMs involves cyclic modulation of cell morphology and adhesion inducing a delta change in impedance. From the cyclic changes in impedance a beating frequency, amplitude and effects on beating pattern can be calculated. Time point “0” (baseline) is recorded 10× for 20 seconds at 1 minute intervals. Thereafter, compounds and control (0.1% DMSO) are added to the wells and effects are measured 30 minutes later. Vehicle control is 0.1% DMSO and positive control is 100 nM isoproterenol. Compounds are tested at 0.1, 0.3, 1.0 and 3.0 uM. Data is collected at 5, 10, 15, 20 and 30 minutes, and 1, 4, 6, 12 and 24 hours post-incubation.

[5] = biological target: Rabbit skeletal myosin; assay: Skeletal muscle myosin II actin-activated ATPase assay; type: biochemical; settings: 20 nM skeletal muscle myosin II; read-out: SKMMII KI
Summary of the method: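 NADH-coupled (PK/LDH) actin-activated ATPase at 25 °C with 20 nM rabbit skeletal myosin II, 10 μM F-actin, 1 mM ATP, 1 mM PEP, 220 μM NADH in MOPS pH 7.0, MgCl2, EGTA, BSA, DTT, 0.5% DMSO. NADH fluorescence followed 30 min; inhibitory constants from 16-point triplicate curves (top 50 uM), quadratic one-to-one fit.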

[6] = Photostability, percentage remaining undegraded under illumination or in the dark; settings: for Photostability 4 hours: percentage remaining undegraded after 4 hours illumination; for Photostability 24 hours: percentage remaining undegraded after 24 hours illumination; for Photostability Dark (24 h): percentage remaining undegraded in the dark
[7] = cardiac muscle myosin II, read-out: CMMII Ki
[8] = 300 nM cardiac myosin, 10 μM actin, 25° C., read-out: CMMII KI

Bovine cardiac myosin, sequence (Q9BE39 whole entry): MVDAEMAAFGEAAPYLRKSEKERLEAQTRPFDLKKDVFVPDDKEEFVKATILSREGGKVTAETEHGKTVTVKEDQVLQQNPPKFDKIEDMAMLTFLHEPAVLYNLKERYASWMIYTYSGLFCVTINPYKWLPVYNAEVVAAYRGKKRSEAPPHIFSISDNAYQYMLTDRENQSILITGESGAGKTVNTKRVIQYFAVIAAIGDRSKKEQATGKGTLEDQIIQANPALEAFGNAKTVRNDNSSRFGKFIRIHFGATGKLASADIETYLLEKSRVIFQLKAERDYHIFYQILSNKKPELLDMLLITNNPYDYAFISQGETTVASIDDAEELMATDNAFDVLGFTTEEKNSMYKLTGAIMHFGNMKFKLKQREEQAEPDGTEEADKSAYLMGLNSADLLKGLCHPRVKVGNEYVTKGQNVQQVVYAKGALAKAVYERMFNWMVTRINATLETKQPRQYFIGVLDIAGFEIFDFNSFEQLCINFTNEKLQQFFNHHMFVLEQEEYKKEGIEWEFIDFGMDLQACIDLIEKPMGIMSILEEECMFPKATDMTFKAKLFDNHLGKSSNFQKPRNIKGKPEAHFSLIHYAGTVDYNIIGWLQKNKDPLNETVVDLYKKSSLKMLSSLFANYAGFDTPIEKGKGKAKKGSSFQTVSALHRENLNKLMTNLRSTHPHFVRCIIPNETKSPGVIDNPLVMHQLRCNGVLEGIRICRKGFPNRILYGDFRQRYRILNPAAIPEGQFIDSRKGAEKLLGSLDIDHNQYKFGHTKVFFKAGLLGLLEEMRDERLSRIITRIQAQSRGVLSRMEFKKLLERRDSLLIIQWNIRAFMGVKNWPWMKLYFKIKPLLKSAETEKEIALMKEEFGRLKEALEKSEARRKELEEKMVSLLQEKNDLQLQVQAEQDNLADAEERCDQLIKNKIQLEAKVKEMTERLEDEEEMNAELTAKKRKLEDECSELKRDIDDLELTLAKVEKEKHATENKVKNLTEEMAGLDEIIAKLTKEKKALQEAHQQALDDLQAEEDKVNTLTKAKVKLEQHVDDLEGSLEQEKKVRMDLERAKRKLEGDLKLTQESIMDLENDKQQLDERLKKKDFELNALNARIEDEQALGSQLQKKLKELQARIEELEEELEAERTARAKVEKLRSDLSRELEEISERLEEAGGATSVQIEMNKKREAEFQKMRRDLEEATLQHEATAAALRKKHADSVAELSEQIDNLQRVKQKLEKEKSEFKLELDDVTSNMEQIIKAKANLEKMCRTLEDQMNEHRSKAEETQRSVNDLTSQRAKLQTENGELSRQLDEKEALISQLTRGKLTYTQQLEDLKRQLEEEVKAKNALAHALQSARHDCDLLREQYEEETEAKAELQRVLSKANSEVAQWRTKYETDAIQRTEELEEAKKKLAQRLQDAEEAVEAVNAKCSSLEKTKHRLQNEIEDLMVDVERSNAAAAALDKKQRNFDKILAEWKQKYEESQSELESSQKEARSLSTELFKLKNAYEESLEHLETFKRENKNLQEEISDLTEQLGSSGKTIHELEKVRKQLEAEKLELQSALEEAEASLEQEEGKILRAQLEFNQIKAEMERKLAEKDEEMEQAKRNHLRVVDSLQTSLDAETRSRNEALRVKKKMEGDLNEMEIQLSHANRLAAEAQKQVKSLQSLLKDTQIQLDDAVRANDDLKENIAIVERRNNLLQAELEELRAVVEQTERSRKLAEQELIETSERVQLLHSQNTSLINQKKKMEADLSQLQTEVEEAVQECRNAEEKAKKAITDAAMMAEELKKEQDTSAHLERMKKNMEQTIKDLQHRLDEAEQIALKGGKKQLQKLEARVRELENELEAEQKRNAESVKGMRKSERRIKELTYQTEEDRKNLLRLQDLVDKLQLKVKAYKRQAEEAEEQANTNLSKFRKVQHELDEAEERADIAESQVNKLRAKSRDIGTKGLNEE
Bovine cardiac myosin, sequence (P85100 whole entry partner): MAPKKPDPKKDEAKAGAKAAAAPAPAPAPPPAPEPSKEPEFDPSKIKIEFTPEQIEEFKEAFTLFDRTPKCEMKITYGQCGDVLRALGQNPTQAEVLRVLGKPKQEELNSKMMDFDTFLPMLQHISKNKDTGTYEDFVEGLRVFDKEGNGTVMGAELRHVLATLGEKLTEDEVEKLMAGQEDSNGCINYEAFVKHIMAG
Bovine cardiac myosin, sequence (Q3SZE5 whole entry partner): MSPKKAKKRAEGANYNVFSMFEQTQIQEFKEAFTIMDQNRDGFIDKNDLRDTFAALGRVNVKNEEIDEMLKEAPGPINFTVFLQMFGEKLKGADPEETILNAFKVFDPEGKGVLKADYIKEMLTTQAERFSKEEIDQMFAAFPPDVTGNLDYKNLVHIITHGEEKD
nonmuscle myosin II, sequence (A0A0D9RDH4 1-1976): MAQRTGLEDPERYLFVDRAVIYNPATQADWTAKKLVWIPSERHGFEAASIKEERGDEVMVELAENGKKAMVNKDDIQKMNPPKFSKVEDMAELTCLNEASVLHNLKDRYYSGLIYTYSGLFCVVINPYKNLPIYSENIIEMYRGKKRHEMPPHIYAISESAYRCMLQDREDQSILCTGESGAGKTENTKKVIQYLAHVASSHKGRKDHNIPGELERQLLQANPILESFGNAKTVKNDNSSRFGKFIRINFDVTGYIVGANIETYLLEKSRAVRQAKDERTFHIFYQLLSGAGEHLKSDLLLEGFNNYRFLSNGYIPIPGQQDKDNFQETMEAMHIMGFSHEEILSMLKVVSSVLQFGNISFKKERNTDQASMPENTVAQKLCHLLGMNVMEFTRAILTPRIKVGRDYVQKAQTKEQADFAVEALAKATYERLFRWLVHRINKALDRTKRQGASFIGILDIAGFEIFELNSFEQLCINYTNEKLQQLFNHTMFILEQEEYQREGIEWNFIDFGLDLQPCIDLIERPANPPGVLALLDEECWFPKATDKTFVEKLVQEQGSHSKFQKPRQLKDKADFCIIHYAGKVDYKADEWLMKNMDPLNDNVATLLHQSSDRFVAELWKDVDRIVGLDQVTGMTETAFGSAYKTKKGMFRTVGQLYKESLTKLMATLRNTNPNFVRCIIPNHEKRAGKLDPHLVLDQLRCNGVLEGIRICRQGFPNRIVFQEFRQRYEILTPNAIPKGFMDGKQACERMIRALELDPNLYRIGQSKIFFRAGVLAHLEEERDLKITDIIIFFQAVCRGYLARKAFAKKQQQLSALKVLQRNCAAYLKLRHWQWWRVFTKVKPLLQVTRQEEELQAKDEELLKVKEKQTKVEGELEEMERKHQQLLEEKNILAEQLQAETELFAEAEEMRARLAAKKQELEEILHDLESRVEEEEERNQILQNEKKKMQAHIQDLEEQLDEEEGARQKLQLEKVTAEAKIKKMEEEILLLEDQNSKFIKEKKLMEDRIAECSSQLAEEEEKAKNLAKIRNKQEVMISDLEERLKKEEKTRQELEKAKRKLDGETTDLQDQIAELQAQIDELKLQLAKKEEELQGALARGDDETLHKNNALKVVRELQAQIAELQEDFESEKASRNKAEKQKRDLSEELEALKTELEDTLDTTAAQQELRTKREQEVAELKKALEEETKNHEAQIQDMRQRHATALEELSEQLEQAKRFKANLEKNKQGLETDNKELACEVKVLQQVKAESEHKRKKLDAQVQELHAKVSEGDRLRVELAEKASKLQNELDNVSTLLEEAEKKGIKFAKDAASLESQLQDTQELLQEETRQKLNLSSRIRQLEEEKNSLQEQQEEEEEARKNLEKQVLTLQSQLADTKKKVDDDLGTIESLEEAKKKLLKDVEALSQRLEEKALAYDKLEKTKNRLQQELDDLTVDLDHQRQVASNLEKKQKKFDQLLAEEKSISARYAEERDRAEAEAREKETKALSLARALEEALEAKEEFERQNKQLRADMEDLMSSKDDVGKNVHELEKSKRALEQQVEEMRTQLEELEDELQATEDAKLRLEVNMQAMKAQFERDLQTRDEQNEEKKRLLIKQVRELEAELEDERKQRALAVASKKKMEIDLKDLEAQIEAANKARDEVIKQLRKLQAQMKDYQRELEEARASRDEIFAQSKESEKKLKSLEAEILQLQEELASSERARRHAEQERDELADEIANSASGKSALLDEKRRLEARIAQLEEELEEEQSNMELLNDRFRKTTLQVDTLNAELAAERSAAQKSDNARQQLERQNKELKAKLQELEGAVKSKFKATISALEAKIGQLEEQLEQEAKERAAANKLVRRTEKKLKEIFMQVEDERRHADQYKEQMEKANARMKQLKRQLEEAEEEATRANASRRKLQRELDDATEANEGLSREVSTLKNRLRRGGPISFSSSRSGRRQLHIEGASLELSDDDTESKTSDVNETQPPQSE

SMILES | effect in a broad panel of rodent behaviors [1] | CMMII/NMII Ratio [2] | Ki [2, 7] [µM] | EC50 [3] [µM] | Change in amplitude at 1 uM @ 15 min [4] | Ki [2, 8] [µM] | Ratio CMMII:NMII Ki/EC50 [2] | Ki [5] [µM] | Qualitative impact on contractility (e.g. Full = Complete inhibition of contraction) ([4]; 0.1 uM-1.0 uM) | Qualitative impact on contractility (e.g. Full = Complete inhibition of contraction) ([4]; 3.0 uM) | Photostability 4 hours [6] [%] | Photostability 24 hours [6] [%] | Photostability Dark (24 h) [6] [%] | Photostability 4 hours (4 h) [%] | Photostability 24 hours (24 h) [%] | Photostability Dark (24 h) [%]
Cc1ccc2c(c1)C(=O)C1(O)CCN(c3ccccc3)C1=N2 (racemic) [racemic Blebb] | no effect |  |  |  |  |  |  |  |  |  |  |  |  |  |  | 
O=C1c2cc(Cl)ccc2N=C2N(c3ccccc3)CC[C@@]12O [BPN-0025002] |  | 0.76 | 1.97 | 2.6 | −38.9 ± 2.4% |  |  |  |  |  |  |  |  |  |  | 
Cc1ccc2c(c1)C(=O)[C@]1(O)CCN(c3cccc(Cl)c3)C1=N2 [BPN-0025059] |  | 9.25 | 47.2 |  | +1.1 ± 0.1% | 120 | 23.5 | 22 | 0.1 uM-1.0 uM: No effect; 3.0 uM: | Small effect | 96.1 | 48.6 | >99 |  |  | 
Cc1cccc(N2CC[C@@]3(O)C(=O)c4cc(C)ccc4N=C23)c1 [BPN-0025100] |  | 3.51 | 26.3 |  | −7.8 ± 1.3% | 48 | 6.4 | 9.7 | 0.1 uM-1.0 uM: No effect; 3.0 uM: | Small effect | 82.8 | 4.7 | 99.0 |  |  | 
Cc1cc(N2CC[C@@]3(O)C(=O)c4c(sc(C)c4C)NC23)ccc1C#N (stereo partly drawn) [BPN-0026886] |  |  |  |  |  | 19 | 7.0 | 4.2 |  |  |  |  |  | >99 | 98.5 | >99
Cc1cc2c(cc1C)C(=O)[C@]1(O)CCN(c3ccc4nc(CN(C)C)ccc4c3)C1=N2 [BPN-0028897] |  |  |  |  |  | 300 | 33.3 | 110 |  |  | 82.8 | 5.4 | 98.4 |  |  | 
Cc1ccc2cc(N3CC[C@@]4(O)C(=O)c5cc(C)sc5N=C34)ccc2n1 [BPN-0028898] |  |  |  |  |  | 95 | 31.7 | 1.9 |  |  | 93.4 | 58.1 | 96.4 |  |  | 
Cc1cc2c(cc1C)C(=O)[C@]1(O)CCN(c3ccc4nc(N)ccc4c3)C1=N2 [BPN-0028899] |  |  |  |  |  |  | NMII-sel | 3.8 |  |  | 70.8 | 29.7 | 97.8 |  |  | 
CCc1nc2cc(N3CC[C@@]4(O)C(=O)c5cc(C)c(C)cc5N=C34)ccc2s1 [BPN-0028918] |  |  |  |  |  | 11 | 5.5 | 0.64 |  |  | 54.2 | 7.8 | >99 |  |  | 
Cc1cc2c(cc1C)C(=O)[C@]1(O)CCN(c3ccc4sc(C(C)C)nc4c3)C1=N2 [BPN-0028919] |  |  |  |  |  |  | NMII-sel | 1.4 |  |  | 48.4 | <1 | 98.5 |  |  | 
Cc1cc2c(cc1C)C(=O)[C@]1(O)CCN(c3cnc4c(c3)CCCC4)C1=N2 [BPN-0028920] |  |  |  |  |  |  | NMII-sel | 3.9 |  |  | 36.6 | 2.5 | 98.4 |  |  | 
Cc1cc2c(cc1C)C(=O)[C@]1(O)CCN(c3ccc4c(c3)OCCO4)C1=N2 [BPN-0028921] |  |  |  |  |  | 8.4 | 11.2 | 1 |  |  | 2.8 | 3.1 | 97.2 |  |  | 
Cc1cc2c(cc1C)C(=O)[C@]1(O)CCN(c3ccc4c(c3)NCCS4)C1=N2 [BPN-0028922] |  |  |  |  |  | 9.7 | 8.8 | 0.77 |  |  | 86.1 | 27.7 | 94.8 |  |  | 
Cc1cc2c(cc1C)C(=O)[C@]1(O)CCN(c3ccc4c(c3)CCCC4)C1=N2 [BPN-0028923] |  |  |  |  |  | 30 | 8.6 | 6 |  |  | 77.5 | 1 | 98.1 |  |  | 
Cc1cc2c(cc1C)C(=O)[C@]1(O)CCN(c3ccc4c(c3)OCCC4)C1=N2 [BPN-0028924] |  |  |  |  |  | 20 | 11.8 | 2.6 |  |  | 44.7 | <1 | 97.7 |  |  | 
Cc1cc2c(cc1C)C(=O)[C@]1(O)CCN(c3ccc4c(c3)NCCC4)C1=N2 [BPN-0028925] |  |  |  |  |  | 5.8 | 7.3 | 0.7 |  |  | 85.9 | 24.7 | 93.7 |  |  | 
